Measured values as given in patent publication US20190030036A1, “PHOSPHODIESTERASE INHIBITOR TREATMENT” (Cyrano Therapeutics, Inc., priority 2013, published 2019).

Assays:
asthmatic patients = assay: sGaw after inhaled dry powder in asthmatic patients (Examples 5, 6)
Experimental: (§1) To test this theory, asthmatic patients are enrolled in a dose escalating single blind study. On arrival to the clinic, subjects are allowed to rest for 20 minutes before baseline measurements of FEV1 (six recordings) and sGaw (five recordings) are made. Subjects receive a dry powder dispenser loaded with a dose of 2 mg theophylline or a dry powder carrier. […] After each inhalation, measurements of sGaw are made at 1, 3, 5, 10, 15, 20, 25, and 30 minutes.
On completion of the last recording, subjects inhale a 200 μg dose of salbutamol from a metered inhaler and a further measurement of sGaw is made after 15 minutes. Subjects are also monitored for coughing and are questioned about the taste of the drug.
as §1, with “Asthmatic patients” for “To test this theory, asthmatic patients”, “of 1” for “of 2”, “mg IBMX formulated as a dry powder” for “mg theophylline”
On completion of the last recording, subjects inhale a 200 μg dose of salbutamol from a metered inhaler and a further measurement of sGaw made after 15 minutes. Subjects are also be monitored for coughing and are questioned about the taste of the drug.

cGMP = assay: Parotid saliva cGMP after oral theophylline (Example 2); assay type: in vivo, human; settings: for saliva cGMP levels over initial values: improved patients; for cGMP: parotid saliva
Experimental: Parotid saliva was collected from each patient by application of a Lashley cup over Stensen's duct with lingual stimulation by placement of concentrated lemon juice. Saliva was collected in plastic tubes and stored at −20° C. until assayed. cAMP and cGMP were measured in saliva by a sensitive 96 plate spectrophotometric assay (R&D Systems, Minneapolis, Minn.).
All patients were placed in a fixed design open label clinical trial with treatment with oral theophylline. Treatment consisted of fixed treatment periods of two-eight months with sequential doses of the drug at 200 mg, 400 mg and 600 mg. At termination of each of these intervals, patients returned to study site for reevaluation. At the end of each interval subjective responses to treatment were measured with a modification of the 0-100 scale previously used. Subjective responses to treatment were graded on a sliding scale from −100−0-+100 with patients recording improvement (+0-+100), no improvement (0) or worsening (0-−100) of their overall smell function. If overall smell function improved ≥5% they were considered to improve clinically (1). If smell function improved <5% they were considered not to improve (1). At the end of each interval subjective measurements of smell function, measurements of DT, RT, ME and H and measurements of parotid saliva for levels of cAMP and cGMP were obtained. In addition, blood plasma was obtained by venipuncture, placed in ice into zinc free tubes which contained 100 mg zinc free heparin, centrifuged at 3000 rpm for 10-20 min, the plasma transferred to plastic PCR tubes and stored at −20° C. until assayed. Theophylline was assayed by a fluorescence polarization assay (Abbott, Chicago, Ill.), as previously described.
Data for the cyclic nucleotides from these 31 patients was not analyzed until the entire study of the 312 patients in Example 1 was assembled and analyzed in its entirety. After completion of these analyses, all data for parotid saliva cAMP and cGMP from all patients in whom salivary cAMP and cGMP were obtained were assembled. Levels of salivary cyclic nucleotides varied widely. Initially, without external criteria, there was no way to understand these disparate data. […] In a similar manner, measurements of each patient's plasma theophylline level at each dosage of theophylline (at 200 mg, 400 mg, 600 mg of theophylline) were categorized. The two patient groups were also analyzed post hoc with respect to type of smell loss and etiology of smell loss.

patients with hyposmia = assay: Subjective overall change in smell function; open trial of oral theophylline; assay type: in vivo, human
Experimental: Independently, patients were also required to grade their ability to smell daily on a scale from 0-100, with 0 reflecting no overall smell function over a 24 hour period, 100 reflecting normal overall smell function over this period and numbers from 0-100 reflecting their estimation of their overall ability to smell odors over this period.
After determination of hyposmia, patients were treated in an open label, fixed design, controlled open trial. Patients were given an oral extended release theophylline in divided daily doses taken in the middle of breakfast and lunch. All patients were initially given 200 mg of theophylline; changes in this dose were made based upon subjective responses to therapy. If at a subsequent return visit, patients reported ≥5% subjective improvement in overall smell function, they continued on this same dose of theophylline and were reevaluated after four to six months of continued treatment. Results from any subsequent return from these improved patients were not included in any subsequent data report. All subsequent comparisons between treated and untreated patients were made only between those patients continuing in the study compared to their own measurements obtained in the untreated state. If patients reported <5% subjective improvement, their theophylline dose was increased by 200 mg daily and they were scheduled for retesting at the study site after two to four months at this new dosage. For patients that reported <5% improvement, this sequence continued until patients reached 800 mg of theophylline, at which time the study was considered completed.
Patients returned for reevaluation after two to four months of treatment. Measurements of blood serum theophylline were measured by a fluorescence polarization assay (Abbott, Chicago, Ill.). At this time, subjective changes in smell function were measured independently (compared to patient's memory of previous normal smell function monitored by use of the patients' daily measurements) using the scale from −100−0-+100 previously described. After independently recording their subjective responses, smell function was measured for all four odors with DT, RT, ME and H determined without recourse to prior measurements.
Subjective overall changes in smell acuity were reported by telephone and by FAX or email at two—four month intervals after treatment was initiated using the standardized form in which they measured daily changes in smell acuity using the −100−0-+100 scale as noted above. Using the same criteria noted above, if at their initial two—four month call-in they reported improvement in smell acuity of ≥5%, they continued at 200 mg and returned to the study site at four—six months on this treatment dose. If they reported improvement in smell acuity of <5% their dose of theophylline was increased to 400 mg for an additional two—four months and they then called the study site at the end of this period.

[1] = inhaled dry powder 2 mg theophylline

Structure (SMILES): Cn1c(=O)c2[nH]cnc2n(C)c1=O [theophylline]
- sGaw above the baseline measurement (asthmatic patients; after 30 minutes, inhaled dry powder 2 mg theophylline): 20%
- taste and coughing (asthmatic patients; dry powder formulation of theophylline vs nebulized liquid): without the unpleasant taste or the induction of coughing
- increase in sGaw relative to 200 μg inhaled salbutamol (asthmatic patients; [1]): comparable
- time until sGaw baseline is reached (asthmatic patients; [1]): 1 h
- saliva cGMP levels over initial values (cGMP; oral theophylline 400 mg): 275%
- saliva cGMP levels over initial values (cGMP; oral theophylline 600 mg): 338%
- cGMP (cGMP; oral theophylline 200 mg, patients with improved smell function (15)): 0.08 ± 0.016 pmol/mL
- cGMP (cGMP; oral theophylline 200 mg, patients with unimproved smell function (9)): 0.07 ± 0.018 pmol/mL
- cGMP (cGMP; oral theophylline 400 mg, patients with unimproved smell function (4)): 0.05 ± 0.014 pmol/mL
- cGMP (cGMP; oral theophylline 600 mg, patients with unimproved smell function (5)): 0.04 ± 0.07 pmol/mL
- patients improved ≥5% (subjective smell function) (patients with hyposmia; oral theophylline 200 mg daily, two-six months, 199 returning patients): 17.1%
- improved patients who considered their smell function had returned to normal (patients with hyposmia; oral theophylline 200 mg daily, of 34 improved patients): 26.5%
- non-returning patients reporting >5% improvement (patients with hyposmia; oral theophylline 200 mg, 15 non-returning patients): 46.7%
- improved non-returning patients reporting a return to normal (patients with hyposmia; oral theophylline 200 mg, non-returning patients): 14.3%
- patients improved ≥5% (subjective smell function) (patients with hyposmia; oral theophylline 400 mg daily, two-six months, 120 patients): 29.2%
- improved patients who considered their smell function had returned to normal (patients with hyposmia; oral theophylline 400 mg daily, of 35 improved patients): 8.6%
- patients improved ≥5% (subjective smell function) (patients with hyposmia; oral theophylline 600 mg daily, two-12 months, 160 patients): 41.2%
- patients who considered their smell function had returned to normal (patients with hyposmia; oral theophylline 600 mg daily, 17 patients): 10.6%
- patients improved ≥5% (subjective smell function) (patients with hyposmia; oral theophylline 800 mg daily, two-12 months, 28 patients): 53.6%
- patients who considered their smell function had returned to normal (patients with hyposmia; oral theophylline 800 mg daily, three patients): 33%
- improved patients reporting smell function returned to normal (patients with hyposmia; oral theophylline 200-600 mg, Type III hyposmia): 60%
- patients reporting >5% improvement (patients with hyposmia; oral theophylline 200-600 mg, eight patients with Type III hyposmia): 62.5%
- patients reporting >5% improvement (patients with hyposmia; oral theophylline 200-800 mg, 96 patients with Type I hyposmia): 33.3%
- patients reporting >5% improvement (patients with hyposmia; oral theophylline 200-800 mg, 208 patients with Type II hyposmia): 62%
- improved patients reporting smell function returned to normal (patients with hyposmia; oral theophylline 200-800 mg, Type I hyposmia): 15.6%
- improved patients reporting smell function returned to normal (patients with hyposmia; oral theophylline 200-800 mg, Type II hyposmia): 20.2%
- responsive patients who considered smell function returned to normal levels (patients with hyposmia; oral theophylline, 34 of 157): 21.7%
- patients subjectively responsive to treatment (patients with hyposmia; oral theophylline, 157 of the 312 patients): 50.3%
- all patients in the study who considered smell function returned to normal (patients with hyposmia; oral theophylline, all 312 patients): 10.9%
